Experimental data reported in patent US20190210996A1, “NOVEL COMPOUNDS” (GLAXOSMITHKLINE INTELLECTUAL PROPERTY DEVELOPMENT LIMITED, priority 2016, published 2019).

Experiments:
[1] = target: T1, GAK (Homo sapiens, UniProt O14976); test: Expression proteomics in THP-1 cells: GAK protein level; format: cell-based
T1 construct: endogenous in cells; host or cells: THP-1
T1 sequence (O14976 1-1311): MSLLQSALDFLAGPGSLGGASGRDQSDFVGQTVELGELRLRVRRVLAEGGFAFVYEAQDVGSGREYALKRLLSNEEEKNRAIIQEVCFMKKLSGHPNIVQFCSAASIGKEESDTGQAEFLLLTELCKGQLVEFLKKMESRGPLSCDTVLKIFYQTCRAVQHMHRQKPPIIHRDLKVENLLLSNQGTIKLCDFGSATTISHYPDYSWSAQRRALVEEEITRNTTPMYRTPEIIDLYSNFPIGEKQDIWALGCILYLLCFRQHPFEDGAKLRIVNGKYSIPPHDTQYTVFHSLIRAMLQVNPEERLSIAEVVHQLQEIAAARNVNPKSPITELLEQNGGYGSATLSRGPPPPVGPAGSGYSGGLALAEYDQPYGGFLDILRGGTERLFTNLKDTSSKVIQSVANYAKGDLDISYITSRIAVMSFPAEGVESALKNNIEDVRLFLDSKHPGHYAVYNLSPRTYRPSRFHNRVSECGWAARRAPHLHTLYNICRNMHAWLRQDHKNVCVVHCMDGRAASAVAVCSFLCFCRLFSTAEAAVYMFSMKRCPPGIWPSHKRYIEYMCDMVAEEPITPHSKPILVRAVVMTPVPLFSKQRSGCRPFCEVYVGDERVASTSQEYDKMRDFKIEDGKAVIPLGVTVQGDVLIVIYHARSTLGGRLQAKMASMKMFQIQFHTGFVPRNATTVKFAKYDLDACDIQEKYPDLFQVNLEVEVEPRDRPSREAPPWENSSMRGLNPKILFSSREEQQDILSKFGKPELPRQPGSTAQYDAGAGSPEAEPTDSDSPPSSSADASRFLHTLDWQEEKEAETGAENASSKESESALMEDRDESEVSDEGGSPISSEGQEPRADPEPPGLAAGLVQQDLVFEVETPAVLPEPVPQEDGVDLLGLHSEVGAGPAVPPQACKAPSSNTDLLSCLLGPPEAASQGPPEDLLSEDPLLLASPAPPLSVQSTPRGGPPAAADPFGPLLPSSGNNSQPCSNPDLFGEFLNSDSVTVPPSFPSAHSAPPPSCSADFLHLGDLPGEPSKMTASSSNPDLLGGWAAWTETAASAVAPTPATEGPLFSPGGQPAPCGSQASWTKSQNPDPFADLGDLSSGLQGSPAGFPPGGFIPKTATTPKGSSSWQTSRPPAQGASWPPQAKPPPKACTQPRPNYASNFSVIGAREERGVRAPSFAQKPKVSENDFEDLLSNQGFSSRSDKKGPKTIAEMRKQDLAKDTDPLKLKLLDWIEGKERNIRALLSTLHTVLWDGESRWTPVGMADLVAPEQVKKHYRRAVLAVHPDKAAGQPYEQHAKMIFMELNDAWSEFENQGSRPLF
Description: (§1) THP-1 cells were seeded at a concentration of 3×10^6 cells in T175 flasks with 60 mL growth medium (RPMI1640+10% FBS). […] of a 10× compound solution prepared in growth medium (DMSO), CEREBLON_PROTAC) was added and the cells were treated for the indicated time points (6 or 24 h) at 37° C., 5% CO2. For harvesting the cells were collected into falcon tubes on ice, centrifuged and washed twice in cold PBS (Life technologies). After the last washing step the supernatant was removed and the pellets were snap-frozen in liquid N2 and stored at −80° C. and lysed in 2% SDS for 3 min at 95° C. in a thermomixer (Thermo Fisher Scientific), followed by digestion of DNA with Benzonase at 37° C. for 1.5 h. Lysate was cleared by centrifugation an protein concentration in supernatant was determined by BCA assay.
(§2) Leukemia 25, 89-100 (2011).
(§3) Samples were dried in vacuo and resuspended in 0.05% trifluoroacetic acid in water. Of the sample, 50% was injected into an Ultimate3000 nanoRLSC (Dionex, Sunnyvale, Calif.) coupled to a Q Exactive HF (Thermo Fisher Scientific). Peptides were trapped on a 5 mm×300 μm C18 column (Pepmap100, 5 μm, 300 Å, Thermo Fisher Scientific) in water with 0.05% TFA at 60° C. Separation was performed on custom 50 cm×[…] (ID) reversed-phase columns (Reprosil) at 55° C. Gradient elution was performed from 2% acetonitrile to 40% acetonitrile in 0.1% formic acid and 3.5% DMSO over 2 hours. Samples were online injected into Q-Exactive HF mass spectrometers operating with a data-dependent top 10 method. MS spectra were acquired by using 60.000 resolution and an ion target of 3×10^6. Higher energy collisional dissociation (HCD) scans were performed with 35% NCE at 30.000 resolution (at m/z 200), and the ion target settings was set to 2×10^5 so as to avoid coalescence (Werner, T. et al. Ion Coalescence of Neutron Encoded TMT 10-Plex Reporter Ions. Anal. Chem. 86, 3594-3601 (2014).
(§4) The first search was performed with 30 parts per million mass tolerance for peptide precursors and 30 mD (HCD) mass tolerance for fragment ions followed by a final search using recalibrated data with a 10 parts per million mass tolerance for peptide precursors and 20 mD (HCD) mass tolerance for fragment ions. Carbamidomethylation of cysteine residues and TMT modification of lysine residues were set as fixed modifications and methionine oxidation, and N-terminal acetylation of proteins and TMT modification of peptide N-termini were set as variable modifications. […]
(§5) Nat Biotech 29, 255-265 (2011). this measure is referred to as ion area Savitski, M. M. et al. Delayed Fragmentation and Optimized Isolation Width Settings for Improvement of Protein Identification and Accuracy of Isobaric Mass Tag Quantification on Orbitrap-Type Mass Spectrometers. […]

[2] = target: T2, BTK (Homo sapiens, UniProt Q06187); test: Expression proteomics in THP-1 cells: BTK protein level; format: cell-based
T2 construct: endogenous in cells; host or cells: THP-1
Description: as §1, §2, §3, §4, §5

T2 sequence (Q06187 whole entry): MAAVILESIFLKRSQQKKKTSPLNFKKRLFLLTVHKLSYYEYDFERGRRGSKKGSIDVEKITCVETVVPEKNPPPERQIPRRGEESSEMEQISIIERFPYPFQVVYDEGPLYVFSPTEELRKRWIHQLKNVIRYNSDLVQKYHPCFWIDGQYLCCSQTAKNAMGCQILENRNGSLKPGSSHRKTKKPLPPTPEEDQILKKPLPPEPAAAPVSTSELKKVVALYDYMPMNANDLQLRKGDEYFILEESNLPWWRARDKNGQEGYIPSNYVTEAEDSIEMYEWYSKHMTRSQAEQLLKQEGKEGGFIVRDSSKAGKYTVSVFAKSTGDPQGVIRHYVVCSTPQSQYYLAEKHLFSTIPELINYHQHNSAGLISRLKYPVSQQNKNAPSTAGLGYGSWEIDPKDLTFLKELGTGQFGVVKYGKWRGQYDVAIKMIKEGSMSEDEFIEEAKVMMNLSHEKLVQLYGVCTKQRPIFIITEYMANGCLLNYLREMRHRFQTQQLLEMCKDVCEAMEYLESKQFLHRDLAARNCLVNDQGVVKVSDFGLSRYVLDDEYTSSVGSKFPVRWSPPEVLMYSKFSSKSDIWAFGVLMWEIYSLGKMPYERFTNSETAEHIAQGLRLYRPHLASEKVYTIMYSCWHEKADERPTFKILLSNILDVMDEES

log2 rel. fc. to vehicle control ([1]; 24 h 0.1 μM, n = 1): −1.13
log2 rel. fc. to vehicle control ([1]; 24 h 0.1 μM, n = 2): −1.35
log2 rel. fc. to vehicle control ([1]; 24 h 1 μM, n = 1): −0.93
log2 rel. fc. to vehicle control ([1]; 24 h 1 μM, n = 2): −1.13
log2 rel. fc. to vehicle control ([2]; 24 h 0.1 μM, n = 1): −1.65
log2 rel. fc. to vehicle control ([2]; 24 h 0.1 μM, n = 2): −1.67
log2 rel. fc. to vehicle control ([2]; 24 h 1 μM, n = 1): −2.02
log2 rel. fc. to vehicle control ([2]; 24 h 1 μM, n = 2): −1.86
Compound: CNC(=O)c1ccccc1Nc1nc(Nc2ccc(N3CCN(CCOCCOCCOCCOCC(=O)Nc4cccc5c4CN(C4CCC(=O)NC4=O)C5=O)CC3)cc2)ncc1Cl.O=CO (centres unmarked) [CEREBLON_PROTAC, 14-(4-(4-((5-Chloro-4-((2-(methylcarbamoyl)phenyl)amino)pyrimidin-2-yl)amino)phenyl)piperazin-1-yl)-N-(2-(2,6-dioxopiperidin-3-yl)-1-oxoisoindolin-4-yl)-3,6,9,12-tetraoxatetradecan-1-amide formate]
